Laboratory results: patent US20240238247A1, “METHOD OF TREATING EXPRESSIVE LANGUAGE DEFICIT IN AUTISTIC HUMANS” (AMS Therapeutics, priority 2022, published 2024)
“Also recorded” adds a separate entry of the source.

What was measured:
Assay type in all cases: in vivo
[1] = tested on: autistic human patients with expressive language deficit; assay: Expressive language (verbal output) graded on 7-point scale (0-6) in autistic patients treated with ethosuximide (ETS); conditions: for mean expressive language score after six months (Rx): FIG. 1; for Improvement Over Baseline, Expressive language: after six months of ETS therapy; for mean improvement in expressive language score: normal IQ patients (N=8) treated more than one month, 7-point scale of Table 1
Experimental: To assess the effectiveness of ethosuximide as a pharmacological treatment for expressive language deficit, 24 human patients were treated with ethosuximide (ETS) for at least one month, more preferably six months or longer, and their language, social, and behavioral skills were monitored throughout the course of treatment, typically every 1-3 months. Study participants (subjects) were divided into four treatment groups based on neurodevelopmental level (mental status): normal IQ (NIQ), borderline IQ (BIQ), mild mental retardation (mMR), and moderate mental retardation (moMR). Language skills (expressiveness, receptivity), social behavior (social interaction, eye contact, participation), and mood (affect, irritability, agitation) were evaluated at various points in time. Verbal output was graded using a 7-point scale (0-6), where 0=nonverbal, 1=echolalic (the patient can respond by echoing the speaker), 2=single words (the patient can respond in single words), 3=phrases (the patient can respond in a simple phrase), 4=sentences (the patient can respond in a full sentence), 5=spontaneous speech (the patient can speak spontaneously), and 6=mutual speech (the patient can have a true conversation with another person). [table] To evaluate drug efficacy and onset of action, each patient was monitored for changes in language, social behavior, and mood at various times after commencement of ETS therapy. Performance characteristics observed for each function (expressive language, mood, behavior) are summarized in Table 6, at t=1 month after commencement of treatment and t=3 months after commencement of treatment.

autistic human patients [2] = assay: Social behavior graded on 7-point scale (-3 to +3 vs baseline), based on Aberrant Behavior Checklist, in autistic patients treated with ETS; conditions: for Improvement Over Baseline, Social behavior: after six months of ETS therapy
Experimental: (§1) To assess the effectiveness of ethosuximide as a pharmacological treatment for expressive language deficit, 24 human patients were treated with ethosuximide (ETS) for at least one month, more preferably six months or longer, and their language, social, and behavioral skills were monitored throughout the course of treatment, typically every 1-3 months. Study participants (subjects) were divided into four treatment groups based on neurodevelopmental level (mental status): normal IQ (NIQ), borderline IQ (BIQ), mild mental retardation (mMR), and moderate mental retardation (moMR). Language skills (expressiveness, receptivity), social behavior (social interaction, eye contact, participation), and mood (affect, irritability, agitation) were evaluated at various points in time. Verbal output was graded using a 7-point scale (0-6), where 0=nonverbal, 1=echolalic (the patient can respond by echoing the speaker), 2=single words (the patient can respond in single words), 3=phrases (the patient can respond in a simple phrase), 4=sentences (the patient can respond in a full sentence), 5=spontaneous speech (the patient can speak spontaneously), and 6=mutual speech (the patient can have a true conversation with another person). Social behavior and mood symptoms, based on those described in the Aberrant Behavior Checklist, an established behavioral rating system used in evaluating patients with intellectual disabilities (see Aman, M. G., et al., “The Aberrant Behavior Checklist: A behavior rating scale for the assessment of treatment effects,” American Journal of Mental Deficiency, 89(5):485-491 (1985), incorporated by reference herein), were also graded on a 7-point scale (0±3). […] Social behavior and mood data are presented below in Table 8. To evaluate drug efficacy and onset of action, each patient was monitored for changes in language, social behavior, and mood at various times after commencement of ETS therapy. Performance characteristics observed for each function (expressive language, mood, behavior) are summarized in Table 6, at t=1 month after commencement of treatment and t=3 months after commencement of treatment.

autistic human patients [3] = assay: Mood graded on 7-point scale (-3 to +3 vs baseline), based on Aberrant Behavior Checklist, in autistic patients treated with ETS; conditions: for Improvement Over Baseline, Mood: after six months of ETS therapy
Experimental: as §1

autistic human patients [4] = assay: Tolerability / side effects of ETS treatment in the study patients
From the text: Common side effects reported in the literature for patients receiving ethosuximide treatment for childhood absence epilepsy include abdominal distress, diarrhea, weight loss, hyperactivity, lethargy, leukopenia, and depression. Very few of these symptoms were reported or observed in the patients participating in the study herein described. Eleven patients stopped ETS treatment after 6 months or less. Five of these patients dropped out for non-medical reasons.

[5] = normal IQ patients, Aberrant Behavior Checklist methodology

SMILES: CCC1(C)CC(=O)NC1=O (centres unmarked) [ETS, 2-ethyl-2-methylsuccinimide]
- mean expressive language score after six months (Rx) ([1]; BIQ group, N=4, baseline 1.7, 0-6 scale): 2.75
- Improvement Over Baseline, Expressive language ([1]; BIQ): +1.0
- mean expressive language score after six months (Rx) ([1]; NIQ group, N=8, baseline 2.5, 0-6 scale): 4.4
- Improvement Over Baseline, Expressive language ([1]; NIQ): +2.0
- expressive language score ([1]; Patient A, after 3 months, baseline score 2 (single words)): 3
- expressive language, observation ([1]; Patient A, at 6-9 months): responding in full sentences
- expressive language, observation ([1]; Patient A, at 9-12 months): speak spontaneously and even ask questions
- Language development ([1]; Patient A, baseline SW, 1 mo.): Increased
- Language development (expressive language class) ([1]; Patient A, baseline SW, 3 mo.): PH (Phrases)
- Language development (expressive language class) ([1]; Patient A, baseline SW, 6 mo.): SN/SP
- Language development (expressive language class) ([1]; Patient A, baseline SW, 9 mo.): SN/SP
- Language development (expressive language class) ([1]; Patient A, baseline SW, 12 mo.): SN/SP/MU
- expressive language, observation ([1]; Patient A, one month after onset of ETS treatment, baseline score 2): saying more words
- Language development (4-word PH) ([1]; Patient B, baseline EC/2-word PH, 3 mo.): 4-word
- Language development (expressive language class) ([1]; Patient B, baseline EC/2-word PH, 6 mo.): SN (Sentences)
- Language development (expressive language class) ([1]; Patient B, baseline EC/2-word PH, 9 mo.): SN/SP
- expressive language, observation ([1]; Patient B, by month 6): speak in sentences
- expressive language, observation ([1]; Patient B, by month 9): converse spontaneously at times
- expressive language, observation ([1]; Patient B, three months after onset of treatment, echolalic, some two-word phrases before): 3 and 4-word phrases
- expressive language skills during treatment ([1]; Patient C, autistic child, 6 months of ETS, FIG. 3): steadily improved
- expressive language, observation ([1]; Patients A and B (normal IQ), by 9 months from commencement of treatment, FIG. 2): some spontaneous speech
- language skills after ETS treatment was stopped ([1]; Patients C (stopped at 6 months) and D (stopped at 9 months), evaluated several months later, FIG. 3): continued to improve
- Expressive language: increased word count (talking more), score change ([1]; after 1 month of treatment): count (+1)
- Expressive language, observed performance ([1]; after 3 months of treatment): 2-word phrases and Listening better and makes wants clearer
- effect on expressive language skills ([1]; both epileptic (7 of 24) and non-epileptic patients): improved
- mean expressive language score after six months (Rx) ([1]; mMR group, N=6, baseline 1.3, 0-6 scale): 2.5
- Improvement Over Baseline, Expressive language ([1]; mMR): +1.2
- mean expressive language score after six months (Rx) ([1]; moMR group, N=2, baseline 0.5, 0-6 scale): 1.0
- Improvement Over Baseline, Expressive language ([1]; moMR): +0.5
- mean improvement in expressive language score [1]: 1.9 points
- mean improvement in expressive language score ([1]; listed as ethosuximide): about 2 points
- improvements in expressive language and social skills ([1]; one month after commencing daily treatment): evident
- retention of language gains after discontinuation ([1]; patients who discontinued treatment (after six months)): did not lose their language gains
- Improvement Over Baseline, Social behavior (autistic human patients [2]; BIQ): +1.5
- Improvement Over Baseline, Social behavior (autistic human patients [2]; NIQ): +2.0
- Social behavior, observed performance (autistic human patients [2]; after 1 month of treatment): More engaged
- Social behavior: increased eye contact, score change (autistic human patients [2]; after 1 month of treatment): contact (+1)
- Social behavior, observed performance (autistic human patients [2]; after 3 months of treatment): Sits in groups
- Improvement Over Baseline, Social behavior (autistic human patients [2]; mMR): +1.0
- Improvement Over Baseline, Social behavior (autistic human patients [2]; moMR): +1.0
- gain in social behavior (autistic human patients [2]; [5]): +2 points
- Improvement Over Baseline, Mood (autistic human patients [3]; BIQ): +1.4
- Improvement Over Baseline, Mood (autistic human patients [3]; NIQ): +1.2
- Mood / focus observation (autistic human patients [3]; Patient B, 3 months after onset of treatment): more focused and calmer; also recorded: focused; also recorded: calmer
- Mood: calmer, score change (autistic human patients [3]; after 1 month of treatment): Calmer (+1)
- Mood: more focused, score change (autistic human patients [3]; after 1 month of treatment): More focused (+1)
- Mood, observed performance (autistic human patients [3]; after 3 months of treatment): Fewer tantrums
- Improvement Over Baseline, Mood (autistic human patients [3]; mMR): +1.0
- Improvement Over Baseline, Mood (autistic human patients [3]; moMR): 0.0
- Improvement Over Baseline, Mood (autistic human patients [3]; moMR, listed as ethosuximide): no change
- gain in mood (autistic human patients [3]; [5]): +1.2 points
- tolerability (autistic human patients [4]; all ages evaluated (3-24 years), 150-1000 mg b.i.d.): well tolerated
- literature side effects (abdominal distress, diarrhea, weight loss, hyperactivity, lethargy, leukopenia, depression) reported or observed (autistic human patients [4]; patients participating in the study): Very few
